We go through three compounds from US6806370B2, “NK-1 receptor active amine oxide prodrugs” (Hoffmann-La Roche Inc., priority 2000, dated 2004).

Holding throughout (format): in vitro ADME
What all share (settings): 1 μg/mL, 37° C.

The nature of series [1]: Conversion of prodrug to drug in plasma (human). As to the method: (§1) The conversion of N-oxide prodrugs to the corresponding parent compounds is due to a reduction mechanism. […] The presence of an oxidant in the work-up solution should help preventing the reduction of the N-oxides.
(§2) Conversion in plasma: 10 μLs of a 100 μg/mL DMSO solution of the pro-drug were added to 1 mL plasma to reach a final concentration of 1 μg/mL. The incubation was performed at 37° C. and 8 aliquots were taken at different time points over 30 min. These aliquots were treated with 3 volumes of cold MeOH containing H2O2 (final concentration 10% v/v) and centrifuged at 3500 g for 20 min at 10° C. The supernatant was directly used to determine the drug levels by LC-MS-MS (HPLC chromatography on reversed phase column X-Terra MS C18 […] 2.1×30 mm Waters at 40° C., using a polarity gradient MeOH/Form.Ac.
(§3) 1% 20/80/MeOH; run time; 3.0 min; inj. Vol.: 10 μL; Flow: […] and MS/MS detection on a PE Sciex API-2000 MS/MS spectrometer; ion source: Turbospray; ionisation mode: ESP+).
(§4) Sample stability (plasma and blood): The final matrix were first prepared (plasma or blood treated with 3 volumes of cold MeOH containing H2O2—10% v/v—and centrifuged at 3500 g for 20 min at 10° C.) and then incubated at 37° C. into two tubes; the pro-drug or the drug were then incubated and finally their concentration determined by LC-MS-MS as described above.

The nature of series [2]: Conversion of prodrug to drug in plasma (dog). As to the method:
as §1, §2, §3, §4

Series [3] is described as follows: Conversion of prodrug to drug in plasma (rat). As to the method:
as §1, §2, §3, §4

`CN(C(=O)C(C)(C)c1cc(C(F)(F)F)cc(C(F)(F)F)c1)c1cnc([N+]2([O-])CCOCC2)cc1-c1ccccc1Cl` [Example 2, 2-(3,5-Bis-trifluoromethyl-phenyl)-N-[4-(2-chloro-phenyl)-6-(4-oxy-morpholin-4-yl)-pyridin-3-yl]-N-methyl-isobutyramide]: the “t½ conversion prodrug to drug, Human plasma” value in series [1] was 12 h. Further, in series [2], the “t½ conversion prodrug to drug, Dog plasma” value was 18 h. Besides, the “t½ conversion prodrug to drug, Rat plasma” value in series [3] is 5 h.

As to `Cc1ccccc1-c1cc([N+]2([O-])CCOCC2)ncc1C(=O)N(C)Cc1cc(C(F)(F)F)cc(C(F)(F)F)c1.O` [Example 16, N-(3,5-Bis-trifluoromethyl-benzyl)-N-methyl-6-(4-oxy-morpholin-4-yl)-4-o-tolyl-nicotinamide monohydrate], in series [1], the “t½ conversion prodrug to drug, Human plasma” value was 6 h. Besides, the “t½ conversion prodrug to drug, Dog plasma” value in series [2] was found to be 16 h. The “t½ conversion prodrug to drug, Rat plasma” value in series [3] was 2 h.

As to `Cc1ccccc1-c1cc([N+]2([O-])CCOCC2)ncc1N(C)C(=O)C(C)(C)c1cc(C(F)(F)F)cc(C(F)(F)F)c1` [Example 1, 2-(3,5-Bis-trifluoromethyl-phenyl)-N-methyl-N-[6-(4-oxy-morpholin-4-yl)-4-o-tolyl-pyridin-3-yl]-isobutyramide], the “t½ conversion prodrug to drug, Human plasma” value in series [1] was determined as 8 h. Further, the “t½ conversion prodrug to drug, Dog plasma” value in series [2] came out at 18 h. For the same compound, the “t½ conversion prodrug to drug, Rat plasma” value in series [3] amounted to 4 h.
